How the values were obtained:
Sphaerotheca fuliginea = assay: In vivo preventive test on Sphaerotheca fuliginea (powdery mildew on cucurbits); settings: gherkin plants, 12 days after contamination
Experimental: In Vivo Preventive Test on Sphaerotheca fuliginea (Powdery Mildew on Cucurbits) […] Gherkin plants (“Vert petit de Paris” variety), sown in starter cups on a 50/50 peat soil-pozzolana substrate and grown at 24° C., are treated at the Z11 cotyledon stage by spraying with the active ingredient prepared as described above. Plants, used as controls, are treated with the mixture of acetone/tween/DMSO/water not containing the active material. After 24 hours, the plants are contaminated by spraying the cotyledons with an aqueous suspension of Sphaerotheca fuliginea spores (100 000 spores per mL). The spores are collected from infected plants. […] Grading (% of efficacy) is carried out 12 days after the contamination, in comparison with the control plants.

Septoria tritici = assay: In vivo preventive test on Septoria tritici (wheat); settings: wheat plants, 24 days after contamination
Experimental: In Vivo Preventive Test on Septoria tritici (Wheat) […] Wheat plants (“Scipion” variety), sown in starter cups on a 50/50 peat soil pozzolana substrate and grown at 22° C., are treated at the 1 leaf stage (10 cm height) by spraying with the active ingredient prepared as described above. Plants, used as controls, are treated with the mixture of acetone/tween/DMSO/water not containing the active material. After 24 hours, the plants are contaminated by spraying the leaves with an aqueous suspension of cryopreserved Septoria tritici spores (500 000 spores per mL). The contaminated wheat plants are incubated for 72 hours at 18° C. and at 100% relative humidity, and then for 21 days at 90% relative humidity. Grading (% of efficacy) is carried out 24 days after the contamination, in comparison with the control plants.

[1] = log P by HPLC on a reversed-phase column (C 18), EEC Directive 79/831 Annex V.A8; format: physicochemical; settings: HPLC on reversed-phase column (C 18), 40° C., 0.1% aqueous formic acid and acetonitrile, linear gradient 10% to 90% acetonitrile
Summary of the method: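 40° C; 0.1% aq. formic acid/acetonitrile, linear gradient 10→90% acetonitrile. Calibration: unbranched alkan-2-ones (C3–C16), known log P. log P from retention time, linear interpolation between neighbouring alkanones. lambda-max from UV 200–400 nm at peak maxima.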

Puccinia recondita = assay: In vivo preventive test on Puccinia recondita (brown rust on wheat); settings: wheat plants, 12 days after contamination
Experimental: In Vivo Preventive Test on Puccinia recondita (Brown Rust on Wheat) […] Wheat plants (“Scipion” variety), sown in starter cups on a 50/50 peat soil pozzolana substrate and grown at 22° C., are treated at the 1 leaf stage (10 cm height) by spraying with the active ingredient prepared as described above. Plants, used as controls, are treated with the mixture of acetone/tween/DMSO/water not containing the active material. After 24 hours, the plants are contaminated by spraying the leaves with an aqueous suspension of Puccinia recondita spores (100 000 spores per mL). The spores are collected from an infected plant and are suspended in water containing 2.5 mL/L of Tween 80 at 10%. […] Grading (% of efficacy) is carried out 12 days after the contamination, in comparison with the control plants.

Pyrenophora teres = assay: In vivo preventive test on Pyrenophora teres (barley); settings: barley plants, 14 days after contamination
Experimental: In Vivo Preventive Test on Pyrenophora teres (Barley) […] Barley plants (“Plaisant” variety), sown in starter cups on a 50/50 peat soil pozzolana substrate and grown at 22° C., are treated at the 1 leaf stage (10 cm height) by spraying with the active ingredient prepared as described above. Plants, used as controls, are treated with the mixture of acetone/tween/DMSO/water not containing the active material. After 24 hours, the plants are contaminated by spraying the leaves with an aqueous suspension of Pyrenophora teres spores (12 000 spores per mL). The spores are collected from a 12-day-old culture. […] Grading (% of efficacy) is carried out 14 days after the contamination, in comparison with the control plants.

Uromyces appendiculatus = assay: In vivo preventive test on Uromyces appendiculatus (bean rust); settings: bean plants, 11 days after contamination
Experimental: In Vivo Preventive Test on Uromyces appendiculatus (Bean Rust) […] Bean plants (“Saxa” variety), sown in starter cups on a 50/50 peat soil pozzolana substrate and grown at 24° C., are treated at the 2 leaf stage (9 cm height) by spraying with the active ingredient prepared as described above. Plants, used as controls, are treated with the mixture of acetone/tween/DMSO/water not containing the active material. After 24 hours, the plants are contaminated by spraying the leaves with an aqueous suspension of Uromyces appendiculatus spores (150 000 spores per mL). The spores are collected from infected plants and are suspended in water containing 2.5 mL/L of Tween 80 at 10%. […] Grading (% of efficacy) is carried out 11 days after the contamination, in comparison with the control plants.

Botrytis cinerea = assay: In vivo preventive test on Botrytis cinerea (grey mould); settings: gherkin plants, 4 to 5 days after contamination
Experimental: In Vivo Preventive Test on Botrytis cinerea (Grey Mould) […] Gherkin plants (“Vert petit de Paris” variety), sown in starter cups on a 50/50 peat soil pozzolana substrate and grown at 24° C., are treated at the Z11 cotyledon stage by spraying with the active ingredient prepared as described above. Plants, used as controls, are treated with the mixture of acetone/tween/DMSO/water not containing the active material. After 24 hours, the plants are contaminated by spraying the cotyledons with an aqueous suspension of cryopreserved Botrytis cinerea spores (50 000 spores per mL). The spores are suspended in a nutrient solution composed of 10 g/L of PDB, 50 g/L of D-Fructose, 2 g/L of NH4NO3 and 1 g/L of KH2PO4. The contaminated gherkin plants are incubated at 17° C. and at 90% relative humidity. Grading (% of efficacy) is carried out 4 to 5 days after the contamination, in comparison with the control plants.

Alternaria brassicae = assay: In vivo preventive test on Alternaria brassicae (leaf spot on radish); settings: 500 ppm of active ingredient; radish plants; 6 days after contamination
Experimental: In Vivo Preventive Test on Alternaria brassicae (Leaf Spot on Radish) […] Radish plants (“Pernod Clair” variety), sown in starter cups on a 50/50 peat soil pozzolana substrate and grown at 17° C., are treated at the cotyledon stage by spraying with the active ingredient prepared as described above. Plants, used as controls, are treated with the mixture of acetone/tween/DMSO/water not containing the active material. After 24 hours, the plants are contaminated by spraying the cotyledons with an aqueous suspension of Alternaria brassicae spores (50 000 spores per mL). The spores are collected from a 15-day-old culture. The contaminated radish plants are incubated at 20° C. and at 100% relative humidity. Grading (% of efficacy) is carried out 6 days after the contamination, in comparison with the control plants.

| Structure (SMILES) | Efficacy (Sphaerotheca fuliginea; 500 ppm of active ingredient) [%] | Efficacy (Septoria tritici; 500 ppm of active ingredient) [%] | logP [1] | Efficacy (Puccinia recondita; 500 ppm of active ingredient) [%] | Efficacy (Pyrenophora teres; 500 ppm of active ingredient) [%] | Efficacy (Sphaerotheca fuliginea; 100 ppm of active ingredient) [%] | Efficacy (Uromyces appendiculatus; 100 ppm of active ingredient) [%] | Efficacy (Septoria tritici; 100 ppm of active ingredient) [%] | Efficacy (Puccinia recondita; 100 ppm of active ingredient) [%] | Efficacy (Pyrenophora teres; 100 ppm of active ingredient) [%] | Efficacy (Uromyces appendiculatus; 500 ppm of active ingredient) [%] | Efficacy (Botrytis cinerea; 100 ppm of active ingredient) [%] | Efficacy (Alternaria brassicae) [%] | Efficacy (Botrytis cinerea; 500 ppm of active ingredient) [%] |
| --- | --- | --- | --- | --- | --- | --- | --- | --- | --- | --- | --- | --- | --- | --- |
| Cc1ccc(C2(C)CO2)c(CN(C(=O)c2c(C(F)F)nn(C)c2F)C2CC2)c1 (stereo not shown) [I.5] | 100 | 97 | 3.04 | 98 | 93 |  |  |  |  |  |  |  |  |  |
| Cn1nc(C(F)F)c(C(=O)N(Cc2cc(F)ccc2C2(C)CO2)C2CC2)c1F (stereo not shown) [I.7] |  |  | 2.86 |  |  | 94 | 100 | 100 | 100 | 97 |  |  |  |  |
| Cn1nc(C(F)F)c(C(=O)N(Cc2cc(F)ccc2-c2ccoc2)C2CC2)c1F [I.27] | 100 | 80 | 3.33 | 100 | 93 |  |  |  |  |  | 100 |  |  |  |
| Cn1nc(C(F)F)c(C(=O)N(Cc2cc(-c3ccco3)ccc2Cl)C2CC2)c1F [I.34] |  |  | 3.81 |  |  |  |  |  |  | 81 |  | 99 |  |  |
| Cn1ccc(-c2ccc(F)cc2CN(C(=O)c2c(C(F)F)nn(C)c2F)C2CC2)c1 [I.47] | 94 |  | 3.37 |  | 71 |  |  |  |  |  |  |  |  |  |
| Cn1nc(C(F)F)c(C(=O)N(Cc2ccccc2-c2ccsc2)C2CC2)c1F [I.67] | 100 | 97 | 3.55 | 100 | 79 |  |  |  |  |  | 100 |  |  |  |
| Cn1nc(C(F)F)c(C(=O)N(Cc2cc(Cl)ccc2-c2cccs2)C2CC2)c1F [I.68] | 94 | 83 | 4.11 | 94 |  |  |  |  |  |  | 100 |  | 71 |  |
| Cn1cc(C(=O)N(Cc2ccccc2-c2cccs2)C2CC2)c(C(F)F)n1 [I.72] | 90 | 80 | 3.25 |  |  |  |  |  |  |  | 83 |  | 70 |  |
| Cn1nc(C(F)F)c(C(=S)N(Cc2ccccc2-c2ccsc2)C2CC2)c1F [I.73] | 100 |  | 4.21 | 100 | 71 |  |  |  |  |  | 100 |  |  | 100 |
| Cn1nc(C(F)F)c(C(=S)N(Cc2cc(Cl)ccc2-c2cccs2)C2CC2)c1F [I.74] | 100 |  | 4.69 | 94 |  |  |  |  |  |  | 100 |  | 83 | 100 |
| Cn1nc(C(F)F)c(C(=O)N(Cc2cc(-c3cccs3)ccc2Cl)C2CC2)c1F [I.83] |  |  | 4.06 |  |  | 98 | 80 |  | 75 | 86 |  |  |  |  |
| CC1CC1N(Cc1ccccc1-c1ccsc1)C(=O)c1c(C(F)F)nn(C)c1F (stereo not shown) [I.86] | 98 | 79 | 3.83 | 98 | 79 |  |  |  |  |  | 97 |  |  |  |
| Cn1cc(C(=O)N(Cc2cc(-c3ccsc3)ccc2Cl)C2CC2)c(C(F)F)n1 [I.93] |  |  | 3.59 |  |  |  |  | 86 |  | 88 |  |  |  |  |
| Cn1nc(C(F)F)c(C(=O)N(Cc2cc(-c3ccsc3)ccc2Cl)C2CC2)c1F [I.95] |  |  | 3.96 |  |  | 98 |  |  |  | 88 |  |  |  |  |
| Cc1csc(-c2ccc(Cl)cc2CN(C(=O)c2c(C(F)F)nn(C)c2F)C2CC2)c1 [I.103] | 100 | 95 | 4.51 | 95 | 95 |  |  |  |  |  | 94 |  |  | 98 |
| Cc1nn(C)c(C)c1-c1ccccc1CN(C(=O)c1c(C(F)F)nn(C)c1F)C1CC1 [I.114] | 94 | 100 | 2.52 | 72 | 79 |  |  |  |  |  |  |  |  |  |
| COc1ccsc1-c1ccccc1CN(C(=O)c1c(C(F)F)nn(C)c1F)C1CC1 [I.120] | 100 | 80 | 3.52 | 100 | 79 |  |  |  |  |  | 100 |  |  |  |
| COc1ccsc1-c1ccc(Cl)cc1CN(C(=O)c1c(C(F)F)nn(C)c1F)C1CC1 [I.121] | 100 | 80 | 3.99 | 94 | 86 |  |  |  |  |  |  |  |  |  |
| Cc1ccc(-c2coc3ccccc23)c(CN(C(=O)c2c(C(F)F)nn(C)c2F)C2CC2)c1 [I.134] |  |  | 4.32 |  |  | 90 | 77 | 79 |  | 71 |  |  |  |  |
| Cn1nc(C(F)F)c(C(=O)N(Cc2ccccc2-c2ccsc2Cl)C2CC2)c1F [I.138] | 100 | 100 | 3.92 | 94 | 79 |  |  |  |  |  | 100 |  |  | 100 |
| Cn1cc(C(=O)N(Cc2ccccc2-c2ccc(Cl)s2)C2CC2)c(C(F)F)n1 [I.140] |  | 96 | 3.87 |  |  |  |  |  |  |  | 73 |  | 90 |  |
| Cn1nc(C(F)F)c(C(=O)N(Cc2cc(-c3ccc(Cl)s3)ccc2Cl)C2CC2)c1F [I.143] | 100 | 100 | 4.83 | 88 | 79 |  | 93 |  |  |  |  |  |  | 98 |
| Cn1nc(C(F)F)c(C(=O)N(Cc2ccc(Cl)cc2-c2csc3ccccc23)C2CC2)c1F [I.159] | 100 | 88 | 4.92 |  |  |  |  |  |  | 75 | 84 |  |  | 100 |
